Entries after “also recorded” stand apart in the source; their conditions may differ. Starred links: 1 amine or outer side, 2 acyl side, 3 side chain; linkers in the order of their positions; H or OH if unused. Positions of bridges follow the written chain, without caps; N, C: chain ends. Non-standard residues stand in square brackets, D forms with d. Residues, ends and D or L forms follow the SMILES beside them. Chains are numbered I, II in the order given. Actinocin(9to1) = Cc1c2oc3c(C)ccc(C(=O)[*:1])c3nc-2c(C(=O)[*:2])c(N)c1=O; NMeV = CN[C@H](C(=O)O)C(C)C; Sar = CNCC(=O)O
Tested on: [V13′T]α10 nAChR
Type: cell-based, human (expressed in Xenopus laevis oocytes)

## Cc1c2oc3c(C)ccc(C(=O)N[C@@H]4C(=O)N[C@H](C(C)C)C(=O)N5CCC[C@H]5C(=O)N(C)CC(=O)N(C)[C@@H](C(C)C)C(=O)O[C@@H]4C)c3nc-2c(C(=O)N[C@@H]2C(=O)N[C@H](C(C)C)C(=O)N3CCC[C@H]3C(=O)N(C)CC(=O)N(C)[C@@H](C(C)C)C(=O)O[C@@H]2C)c(N)c1=O [actinomycin D] (I: T[dV]P[Sar][NMeV] / II: T[dV]P[Sar][NMeV]; ester I:1-I:C, II:1-II:C; linker I:N-II:N via Actinocin(9to1))
  effect of actinomycin D on ACh-induced currents: did not differ in the magnitude of their ACh-induced currents from untreated controls; also recorded: not significantly different
  mean ACh-induced response with actinomycin D: −233 ± 219 nA
